From US6066672A, “Amino compounds and angiotensin IV receptor agonists” (Taisho Pharmaceutical Co., Ltd., priority 1996, dated 2000) come the findings set out here.

Each structure is given as a SMILES string. Counter-ions that a name gives are not always drawn.

The assay deals with T1, angiotensin IV receptor (Cavia porcellus, UniProt H0VNM7).
T1 construct: The Hartley guinea pig hippocampus was homogenized in a 50 mM Tris hydrochloride buffer solution; from tissue; host or cells: Hartley guinea pig hippocampus, crude membrane (48,000 x g precipitate)
T1 sequence (H0VNM7 1-1025): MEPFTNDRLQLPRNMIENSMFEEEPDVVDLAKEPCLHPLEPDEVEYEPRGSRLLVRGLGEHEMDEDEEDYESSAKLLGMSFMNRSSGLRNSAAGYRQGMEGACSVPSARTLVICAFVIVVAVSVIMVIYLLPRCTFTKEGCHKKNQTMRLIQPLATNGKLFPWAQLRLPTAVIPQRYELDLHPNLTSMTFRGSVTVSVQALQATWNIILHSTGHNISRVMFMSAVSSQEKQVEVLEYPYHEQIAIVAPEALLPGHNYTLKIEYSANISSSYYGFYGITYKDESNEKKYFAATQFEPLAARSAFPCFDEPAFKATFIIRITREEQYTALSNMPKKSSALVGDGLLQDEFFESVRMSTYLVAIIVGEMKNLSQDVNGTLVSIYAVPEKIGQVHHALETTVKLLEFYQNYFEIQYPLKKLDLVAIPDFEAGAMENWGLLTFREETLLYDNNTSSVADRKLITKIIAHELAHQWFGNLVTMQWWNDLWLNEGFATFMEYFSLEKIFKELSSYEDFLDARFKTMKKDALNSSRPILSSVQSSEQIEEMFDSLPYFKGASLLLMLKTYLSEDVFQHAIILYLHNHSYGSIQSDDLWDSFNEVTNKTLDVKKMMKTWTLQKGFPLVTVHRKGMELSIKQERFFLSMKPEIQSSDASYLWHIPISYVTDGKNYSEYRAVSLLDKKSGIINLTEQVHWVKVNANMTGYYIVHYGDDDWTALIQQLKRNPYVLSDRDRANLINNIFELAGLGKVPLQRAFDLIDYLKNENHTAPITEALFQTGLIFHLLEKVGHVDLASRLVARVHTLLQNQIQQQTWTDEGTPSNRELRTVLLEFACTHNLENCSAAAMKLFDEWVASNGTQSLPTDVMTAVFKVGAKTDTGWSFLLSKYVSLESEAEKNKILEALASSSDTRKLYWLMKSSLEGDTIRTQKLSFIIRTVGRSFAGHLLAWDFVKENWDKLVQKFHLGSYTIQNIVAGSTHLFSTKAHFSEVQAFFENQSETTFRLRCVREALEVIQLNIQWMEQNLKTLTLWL
Description: binding capability to angiotensin IV receptor, inhibition of 125I-angiotensin IV binding to guinea pig hippocampus membrane. Conditions: 0.2 nM 125I-angiotensin IV, Hartley guinea pig hippocampus crude membrane, 37° C., 90 minutes, pH 7.4. How it is done:
The binding capability to angiotensin IV receptor was measured by using Hartley guinea pig hippocampus referring to the method described by Miller-Wing et al., J. Pharmacol. Exp. Ther., vol. 266, pp.1718 (1993). The Hartley guinea pig hippocampus was homogenized in a 50 mM Tris hydrochloride buffer solution (pH 7.4) containing 1 mM ethylenediamine-N,N,N',N'-tetraacetic acid (EDTA) and 100 μM phenylmethanesulfonyl fluoride (PMSF). After centrifugation at 900× g, the resulting supernatant was further centrifuged at 48,000× g. The precipitate was washed once with the same buffer solution and suspended in 50 mM Tris hydrochloride buffer solution (pH 7.4) containing 150 mM sodium chloride, 1 mM EDTA, 100 μM PMSF and 0.1% bovine serum albumin (BSA) to give a protein concentration of […] as a crude membrane specimen. […] The radioactivity on the filter paper was measured by using a gamma-counter. The non-specific bond was measured in the presence of 1 μM angiotensin IV, and the specific bond was calculated by subtracting the non-specific bond from the total bond.
`CCCC[C@H](N)CN[C@@H](Cc1ccc(O)cc1)C(=O)N[C@H](/C=C/c1ccc(C(=O)O)cc1)CC(C)C` [Example 13, N'-[(S)-2-aminohexyl]-N-[(S)-(E)-3-(4-carboxyphenyl)-1-(2-methylpropyl)-2-propenyl]-L-tyrosinamide dihydrochloride] yielded an IC50 of 1.79 nM.
As to `CCCC[C@H](N)CN[C@@H](Cc1ccc(O)cc1)C(=O)N[C@H](CCc1ccc(C(=O)O)cc1)CC(C)C` [Example 14, N'-[(S)-2-aminohexyl]-N-[(R)-3-methyl-1-[2-(4-carboxyphenyl)ethyl]butyl]-L-tyrosinamide dihydrochloride], the IC50 was 26.6 nM. This IC50 lies about 15-fold higher than the previous one.
Molecule `CCCC[C@H](N)CN[C@@H](Cc1ccc(O)cc1)C(=O)N[C@H](/C=C/c1cccc2ccccc12)CC(C)C` [Example 15, N'-[(S)-2-aminohexyl]-N-[(S)-(E)-1-(2-methylpropyl)-3-(1-naphthyl)-2-propenyl]-L-tyrosinamide dihydrochloride] had an IC50 of 3.76 nM. Against the preceding molecule, the IC50 is about 7.1-fold lower.
Regarding `CCCC[C@H](N)CN[C@@H](Cc1ccc(O)cc1)C(=O)N[C@H](CCc1cccc2ccccc12)CC(C)C` [Example 16, N'-[(S)-2-aminohexyl]-N-[(R)-3-methyl-1-[2-(1-naphthyl)ethyl]butyl]-L-tyrosinamide dihydrochloride], the IC50 was found to be 3.43 nM.
`CCCC[C@H](N)CN[C@@H](Cc1ccc(O)cc1)C(=O)N[C@H](/C=C/c1ccccc1)CC(C)C` [Example 17, N'-[(S)-2-aminohexyl]-N-[(S)-(E)-1-(2-methylpropyl)-3-phenyl-2-propenyl]-L-tyrosinamide dihydrochloride] displayed an IC50 of 0.65 nM.
As for `CCCC[C@H](N)CN[C@@H](Cc1ccc(O)cc1)C(=O)N[C@H](CCc1ccccc1)CC(C)C` [Example 18, N'-[(S)-2-aminohexyl]-N-[(R)-3-methyl-1-[2-phenylethyl]butyl]-L-tyrosinamide dihydrochloride], the figure is 8.7 nM.
Molecule `CCCC[C@H](N)CN[C@@H](Cc1ccc(O)cc1)C(=O)N[C@H](/C=C/c1ccc(Cl)cc1)CC(C)C` [Example 19, N'-((S)-2-aminohexyl]-N-[(S)-(E)-3-(4-chlorophenyl)-1-(2-methylpropyl)-2-propenyl]-L-tyrosinamide dihydrochloride] displayed an IC50 of 0.53 nM.
The molecule `CCCC[C@H](N)CN[C@@H](Cc1ccc(O)cc1)C(=O)N[C@H](/C=C\c1ccc(Cl)cc1)CC(C)C` [Example 20, N'-[(S)-2-aminohexyl]-N-[(S)-(Z)-3-(4-chlorophenyl)-1-(2-methylpropyl)-2-propenyl]-L-tyrosinamide dihydrochloride] yielded an IC50 of 5.46 nM.
As for `CCCC[C@H](N)CN[C@@H](Cc1ccc(O)cc1)C(=O)N[C@H](/C=C/c1ccc(-c2ccccc2)cc1)CC(C)C` [Example 21, N'-[(S)-2-aminohexyl]-N-[(S)-(E)-3-([1,1'-biphenyl]-4-yl)-1-(2-methylpropyl)-2-propenyl]-L-tyrosinamide dihydrochloride], the figure is 6 nM; as for `CCCC[C@H](N)CN[C@@H](Cc1ccc(O)cc1)C(=O)N[C@H](CCc1ccc(-c2ccccc2)cc1)CC(C)C` [Example 22, N'-[(S)-2-aminohexyl]-N-[(R)-1-[2-([1,1'-biphenyl]-4-yl)ethyl]-3-methylbutyl]-L-tyrosinamide dihydrochloride], 89 nM; as for `CCCC[C@H](N)CN[C@@H](Cc1ccc(O)cc1)C(=O)N[C@H](/C=C/c1ccc2ccccc2n1)CC(C)C` [Example 23, N'-[(S)-2-aminohexyl]-N-[(S)-(E)-3-(2-quinolyl)-1-(2-methylpropyl)-2-propenyl]-L-tyrosinamide trihydrochloride], 0.53 nM.
For `CCCC[C@H](N)CN[C@@H](Cc1ccc(O)cc1)C(=O)N[C@H](CCc1ccc2ccccc2n1)CC(C)C` [Example 24, N'-[(S)-2-aminohexyl]-N-[(R)-3-methyl-1-[2-(2-quinolyl)ethyl]butyl]-L-tyrosinamide dihydrochloride], the IC50 was determined as 3.77 nM.
`C=C[C@H](CC(C)C)NC(=O)[C@H](Cc1ccc(O)cc1)NC[C@@H](N)CCCC` [Example 25, N'-[(S)-2-aminohexyl]-N-[(S)-1-(2-methylpropyl)-2-propenyl]-L-tyrosinamidedihydrochloride] yielded an IC50 of 89 nM.
In the case of `CCCC[C@H](N)CN[C@@H](Cc1ccc(O)cc1)C(=O)N[C@H](CC)CC(C)C` [Example 26, N'-[(S)-2-aminohexyl]-N-[(R)-1-ethyl-3-methylbutyl]-L-tyrosinamide dihydrochloride], the IC50 came to 38.5 nM.
For `CCCC[C@H](N)C(=O)N[C@H](CN[C@H](/C=C/c1ccccc1)CC(C)C)Cc1ccc(O)cc1` [Example 27, N-[(S)-1-[(4-hydroxyphenyl)methyl]-2-[(S)-(E)-[1-(2-methylpropyl)-3-phenyl-2-propenyl]amino]ethyl]-L-norleucinamide dihydrochloride], the IC50 stood at 328 nM.
`CCCC[C@H](N)C(=O)N[C@H](CN[C@H](CCc1ccccc1)CC(C)C)Cc1ccc(O)cc1` [Example 28, N-[1-[(S)-[(4-hydroxyphenyl)methyl]]-2-[[(R)-3-methyl-1-(2-phenylethyl)butyl]amino]ethyl]-L-norleucinamide dihydrochloride]: the IC50 turned out to be 299 nM. The IC50 values of the last two molecules are within 1.5-fold of each other.
Turning to `CCCC[C@H](N)CN[C@H](CN[C@H](/C=C/c1ccccc1)CC(C)C)Cc1ccc(O)cc1` [Example 29, (S)-(E)-N-[(S)-2-[[(S)-2-aminohexyl]amino]-3-(4-hydroxyphenyl)propyl]-5-methyl-1-phenyl-1-hexen-3-amine trihydrochloride], the IC50 is 24.2 nM.
`CCCC[C@H](N)CN[C@H](CN[C@H](CCc1ccccc1)CC(C)C)Cc1ccc(O)cc1` [Example 30, (R)-N-[(S)-2-[[(S)-2-aminohexyl]amino]-3-(4-hydroxyphenyl)propyl]-5-methyl-1-phenylhexan-3-amine trihydrochloride] registered an IC50 of 171 nM.
Consider `CCCC[C@H](N)CN[C@H](CN[C@H](C(=O)OC)[C@@H](C)CC)Cc1ccc(O)cc1` [Example 31, N-[(S)-2-[[(S)-2-aminohexyl]amino]-3-(4-hydroxyphenyl)propyl]-L-isoleucinemethyl ester trihydrochloride], for which the IC50 worked out at 32 nM.
